# Test results as given in patent US6906205B2, “Spiro and dispiro 1,2,4-trioxolane antimalarials” (Medicines for Malaria Venture MMV, priority 2002, dated 2005).
# Key:
# [1] = system: P. falciparum K1 strain (Thailand resistant to chloroquine); experiment: semiautomated microdilution assay, [3H]-hypoxanthine incorporation, K1 strain; type: cell-based, Plasmodium falciparum; conditions: K1 strain, 72 h incubation
# How it was run: (§1)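 IC50 values come from logit regression of semiautomated microdilution data obtained on intraerythrocytic parasites drawn from asynchronous cultures.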
# [2] = system: P. falciparum NF54 strain (sensitive to standard antimalarials); experiment: semiautomated microdilution assay, [3H]-hypoxanthine incorporation, NF54 strain; type: cell-based, Plasmodium falciparum; conditions: NF54 strain, 72 h incubation
# How it was run: as §1
# [3] = system: ANKA strain of P. berghei; experiment: single dose STI in vivo screen in infected mice; parameters: species or system Plasmodium berghei; conditions: for Activity (%) po / Activity (%) sc / Activity (%) SSVpo: percent reduction in parasitemia day 3 post-infection, mice; for Activity (%) po / Survival (days) po: single 10 mg/kg po in 3% ethanol and 7% Tween 80; for Activity (%) sc / Survival (days) sc: single 10 mg/kg sc in 3% ethanol and 7% Tween 80; for Activity (%) SSVpo: single po dose in standard suspending vehicle (SSV); for Survival (days) po / Survival (days) sc / Survival (days) SSVpo: untreated control 5.6 ± 0.3; for Survival (days) SSVpo: single po dose in SSV
# How it was run: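 Groups of 3-5 Moro SPF or NMRI mice infected with the ANKA strain of P. berghei received a single dose of trioxolane on day one post-infection. The compound was given in 3% ethanol and 7% Tween 80 or in SSV (0.5% w/v CMC, 0.5% v/v benzyl alcohol, 0.4% v/v Tween 80, 0.9% w/v sodium chloride in water). Antimalarial activity was scored as percent reduction in parasitemia on day three and as survival time versus untreated controls. Survival to day 30 counted as cure.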
SMILES,IC50 (ng/ml) K1 [1],IC50 (ng/ml) NF54 [2],Activity (%) po [3],Activity (%) sc [3],Activity (%) SSVpo [3],Survival (days) po [3] [days],Survival (days) sc [3] [days],Survival (days) SSVpo [3] [days]
O=C(NC[C@H]1CC[C@]2(CC1)OOC1(O2)C2CC3CC(C2)CC1C3)c1ccccc1C(=O)NC[C@H]1CC[C@]2(CC1)OOC1(O2)C2CC3CC(C2)CC1C3 (stereo partly shown) [OZ230],3.9 ng/mL,3.6 ng/mL,0/0/0%,0/0/0%,0/0/0%,5.3,5.7,5.7
O=C(O)c1cncn1C[C@H]1CC[C@]2(CC1)OOC1(O2)C2CC3CC(C2)CC1C3 (stereo partly shown) [OZ231],>10/>10 ng/ml,>10/>10 ng/ml,0/0/0%,0/0/0%,0/0/0%,5.3,6.0,5.7
CN(C)C[C@H]1CC[C@]2(CC1)OOC1(O2)C2CC3CC(C2)CC1C3 (stereo partly shown) [OZ232],0.30 ng/mL,0.50 ng/mL,76%,99.94%,74%,8.0,8.7,7.3
COC(=O)c1ncnn1C[C@H]1CC[C@]2(CC1)OOC1(O2)C2CC3CC(C2)CC1C3 (stereo partly shown) [OZ233],1.7 ng/mL,1.9 ng/mL,69%,99.66%,76%,7.0,8.3,7.7
COC(=O)c1ncn(C[C@H]2CC[C@]3(CC2)OOC2(O3)C3CC4CC(C3)CC2C4)n1 (stereo partly shown) [OZ234],3.0 ng/mL,3.6 ng/mL,12%,0%,0%,6.0,6.3,6.0
NC(=O)CN(CC(N)=O)C[C@H]1CC[C@]2(CC1)OOC1(O2)C2CC3CC(C2)CC1C3 (stereo partly shown) [OZ236],2.0/2.0 ng/ml,2.0/2.0 ng/ml,89%,98.61%,86%,6.3,7.7,7.7
N=C(N)NC[C@H]1CC[C@]2(CC1)OOC1(O2)C2CC3CC(C2)CC1C3 (stereo partly shown) [OZ237],5.7 ng/mL,7.1 ng/mL,5%,52%,9%,6.0,6.7,6.0
NC(=O)C[C@H]1CC[C@]2(CC1)OOC1(O2)C2CC3CC(C2)CC1C3 (stereo partly shown) [OZ243],0.91 ng/mL,1.1 ng/mL,87%,70%,97%,7.3,6.3,8.7
O=C(C[C@H]1CC[C@]2(CC1)OOC1(O2)C2CC3CC(C2)CC1C3)N1CCN(c2ccccc2)CC1 (stereo partly shown) [OZ244],4.0 ng/mL,4.2 ng/mL,6%,18%,0%,5.7,6.3,5.3
OC1(c2nccs2)CCC2(CC1)OOC1(O2)C2CC3CC(C2)CC1C3 (stereo not shown) [OZ247],1.8 ng/mL,2.3 ng/mL,57%,99.85%,27%,6.3,9.0,6.0
c1c[nH]c([C@H]2CC[C@]3(CC2)OOC2(O3)C3CC4CC(C3)CC2C4)n1 (stereo partly shown) [OZ251],0.60 ng/mL,0.35 ng/mL,29%,99.87%,6%,6.7,9.0,6.0
c1csc(NC[C@H]2CC[C@]3(CC2)OOC2(O3)C3CC4CC(C3)CC2C4)n1 (stereo partly shown) [OZ252],2.3 ng/mL,2.2 ng/mL,98.91%,99.82%,99.49%,8.3,9.3,9.0
C1C2CC3CC1CC(C2)C31OO[C@]2(CC[C@@H](CNC3CC3)CC2)O1 (stereo partly shown) [OZ253],0.56 ng/mL,0.45 ng/mL,75%,99.82%,59%,7.0,9.3,6.7
C1C2CC3CC1CC(C2)C31OO[C@]2(CC[C@@H](CN(C[C@H]3CC[C@]4(CC3)OOC3(O4)C4CC5CC(C4)CC3C5)C3CC3)CC2)O1 (stereo partly shown) [OZ254],> 100 ng/mL,57 ng/mL,27%,2%,11%,6.0,5.7,5.7
